Measurements reported in publication PMC7395068, “The evolution of strategies to minimise the risk of human drug-induced liver injury (DILI) in drug discovery and development” (Archives of Toxicology, 2020).
Read-outs that look alike come from different tables or passages of the source.

Columns and labels:
Upcyte human hepatocytes = conditions: In vitro Assay; ref Tolosa 2019; cited from earlier work
HepG2 cells [1] = conditions: cited from earlier work
PHH spheroids = conditions: cited from earlier work
[2] = cited from earlier work
[3] = system: primary human hepatocytes, NIH3T3 fibroblasts, BSEP, CYP3A4; conditions: cited from earlier work
[4] = system: THLE or HepG2 cells, isolated mitochondria, BSEP; conditions: cited from earlier work
HepaRG spheroids = assay: Combined HCI (HCS) and cellular ATP 3D assay in HepaRG spheroids; conditions: for AC50 / minimal effective concentration: Homo sapiens
[5] = system: HepG2 C3A spheroid, BSEP, Glu/Gal in HepG2 cells, bioactivation; conditions: cited from earlier work
[6] = ref Chen 2011; cited from earlier work
human hepatocytes = conditions: In vitro Assay; ref Xu 2008; cited from earlier work
hLiMTs [7] = conditions: cited from earlier work
[8] = cited from earlier work; remark: listed apart in the source
[9] = plasma free fraction; cited from earlier work
PHH = conditions: cited from earlier work
[10] = system: THLE-Null and THLE-3A4 cells; conditions: In vitro Assay; ref Gustafsson 2014; cited from earlier work
rBsep = conditions: In vitro Assay; ref Dawson 2012; cited from earlier work
hLiMTs [11] = assay: Combined HCI (HCS) and cellular ATP 3D assay in hLiMTs; conditions: for AC50 / minimal effective concentration: Homo sapiens
HepG2 cells [12] = conditions: In vitro Assay; ref O'Brien 2006; cited from earlier work
[13] = system: isolated mouse liver mitochondria; conditions: In vitro Assay; ref Porceddu 2012; cited from earlier work
HepG2 cells [14] = conditions: cited from earlier work; remark: listed apart in the source
[15] = Plasma free fraction (fu) and unbound Cmax (Cmax,u); assay type: in vitro ADME, human; conditions: unbound plasma Cmax
[16] = cited from earlier work; remark: listed apart in the source
[17] = system: HepG2 cells, primary human hepatocytes; conditions: In vitro Assay; ref Garside 2014; cited from earlier work
[18] = In vitro Assay, ref Persson 2013
[19] = In vitro Assay, ref Schadt 2015
[20] = Modeled in vitro assays (cytotoxicity, mitochondrial dysfunction, BSEP), ref Aleo et al. 2019
[21] = Microtissue model structural based (HCI), combined HCS and ATP, MEC < 25 × Cmax.tot cut-off
[22] = In vitro Assay, ref Proctor 2017

HepaRG <25x Avg Cmax ATP (HepaRG spheroids; HepaRG, ATP endpoint, cut-off <25x Avg Cmax): +ve
HepaRG <100x Avg Cmaxu ATP (HepaRG spheroids; HepaRG, ATP endpoint, cut-off <100x Avg Cmaxu): +ve (<100x Avg Cmaxu)
HepaRG <25x Avg Cmax HCS (HepaRG spheroids; HepaRG, HCS endpoints, cut-off <25x Avg Cmax): +ve
HepaRG <100x Avg Cmaxu HCS (HepaRG spheroids; HepaRG, HCS endpoints, cut-off <100x Avg Cmaxu): +ve (<100x Avg Cmaxu)
HepaRG <25x Avg Cmax All (HepaRG spheroids; HepaRG, all endpoints (ATP and HCS), cut-off <25x Avg Cmax): +ve
HepaRG Cmax max All (HepaRG spheroids; HepaRG, all endpoints, Cmax max used): +ve
HepaRG Cmax min All (HepaRG spheroids; HepaRG, all endpoints, Cmax min used): +ve
HepaRG <10 uM All (HepaRG spheroids; HepaRG, all endpoints, cut-off <10 uM): +ve (<10 uM)
HepaRG <100x Avg Cmaxu All (HepaRG spheroids; HepaRG, all endpoints, cut-off <100x Avg Cmaxu): +ve (<100x Avg Cmaxu)
hLiMTs <25x Avg Cmax ATP (hLiMTs [11]; hLiMTs, ATP endpoint, cut-off <25x Avg Cmax): +ve
hLiMTs <100x Avg Cmaxu ATP (hLiMTs [11]; hLiMTs, ATP endpoint, cut-off <100x Avg Cmaxu): +ve (<100x Avg Cmaxu)
hLiMTs <25x Avg Cmax HCS (hLiMTs [11]; hLiMTs, HCS endpoints, cut-off <25x Avg Cmax): +ve
hLiMTs <100x Avg Cmaxu HCS (hLiMTs [11]; hLiMTs, HCS endpoints, cut-off <100x Avg Cmaxu): +ve (<100x Avg Cmaxu)
hLiMTs <25x Avg Cmax All (hLiMTs [11]; hLiMTs, all endpoints (ATP and HCS), cut-off <25x Avg Cmax): +ve
hLiMTs Cmax max All (hLiMTs [11]; hLiMTs, all endpoints, Cmax max used): +ve
hLiMTs Cmax min All (hLiMTs [11]; hLiMTs, all endpoints, Cmax min used): +ve
hLiMTs <10 uM All (hLiMTs [11]; hLiMTs, all endpoints, cut-off <10 uM): +ve (<10 uM)
hLiMTs <100x Avg Cmaxu All (hLiMTs [11]; hLiMTs, all endpoints, cut-off <100x Avg Cmaxu): +ve (<100x Avg Cmaxu)
Human plasma Cmax,u [15]: 0.272 µM
Structure (SMILES): CC(C)C(=O)Nc1ccc([N+](=O)[O-])c(C(F)(F)F)c1 [flutamide, reference compound]
Upcytes multi donor assay 14day data (Upcyte human hepatocytes): +VE
Cluser analysis (HepG2 cells [1]; [18]): -VE
Structural based (HCI) (HepG2 cells [1]; [18]): -VE
DILI in vitro assay prediction, Persson (2013) (HepG2 cells [1]; Structural based (HCI), HepG2, ref Persson et al. 2013): -VE
hLiMTs ATP <20 x Cmax (PHH spheroids; In vitro Assay, ref Vorrink 2018): +VE (IC20 < 20 × Cmax.tot cut-off)
DILI in vitro assay prediction, Vorrink (2018) (PHH spheroids; PHH spheroids, ATP, 14 days, IC20 < 20 × Cmax.tot, ref Vorrink et al. 2018): +VE (IC20 < 20 × Cmax.tot cut-off)
Cmax ([2]; read-out: Cmax.tot, value used for normalisation, ref O'Brien et al. 2006): 6 µM
Cmax ([2]; read-out: Cmax.tot, value used for normalisation, ref Xu et al. 2008): 0.36 µM
Cmax ([2]; read-out: Human plasma Cmax, total plasma Cmax.tot, median of 9 literature references): 5.43 µM
DILI in vitro assay prediction, Schadt (2015) ([3]; BSEP & Metabolism based, ref Schadt et al. 2015): +VE
Cellular toxicity (3T3 cells) [3, 19]: -VE
Combined Assay [3, 19]: +VE
GSH adduct HML [3, 19]: +VE
Hepatocyte cellular toxicity [3, 19]: -VE
MitoTox 3T3 [3, 19]: +VE
TDI CYP3A4 [3, 19]: -VE
hBSEP inhibition [3, 19]: -VE
Partition Hybrid HRM Score ([4]; In vitro Assay, ref Aleo 2019): +VE
Ro2 Hybrid HRM Score ([4]; In vitro Assay, ref Aleo 2019): +VE
Partition Hybrid HRM Score ≥4, Aleo (2019) [4, 20]: +VE (Partition Hybrid HRM Score ≥4)
Partition Hybrid HRM Score ≥8, Aleo (2019) [4, 20]: +VE (Partition Hybrid HRM Score ≥8)
Rule of Two hybrid HRM Score ≥3, Aleo (2019) [4, 20]: +VE (Rule of Two hybrid HRM Score ≥3)
Rule of Two hybrid HRM Score ≥8, Aleo (2019) [4, 20]: +VE (Rule of Two hybrid HRM Score ≥8)
AC50 (HepaRG spheroids; HepaRG, read-out: ATP endpoint AC50): 14.9 µM
minimal effective concentration (HepaRG spheroids; HepaRG, read-out: ATP endpoint MEC): 7.75 µM
AC50 (HepaRG spheroids; HepaRG, read-out: HCS endpoint AC50): 42.7 µM
minimal effective concentration (HepaRG spheroids; HepaRG, read-out: HCS endpoint MEC): 13.9 µM
DILI prediction HepaRG spheroids (HCS-MEC) (HepaRG spheroids; [21]): +VE (MEC < 25 × Cmax.tot cut-off)
Bayesian Machine Learning DILI prediction, Williams (2019) ([5]; Bayesian modeling, ref Williams et al. 2019): +VE
Bayesian Machine Learning ([5]; In vitro Assay, ref Williams 2019): +VE
DILI Score (FDA) (1-8) [6]: 8
Structural based (HCI) (human hepatocytes): -VE
hLiMTs ATP <100uM (hLiMTs [7]; [22]): +VE (IC50 threshold of 100 µM)
hLiMTs/100xCmax, Proctor (2017) (hLiMTs [7]; hLiMTs, ATP, IC50 < 100 × Cmax.tot, ref Proctor et al. 2017): +VE (IC50 < 100 × Cmax.tot)
hLiMTs/100uM, Proctor (2017) (hLiMTs [7]; hLiMTs, ATP, IC50 threshold 100 µM, ref Proctor et al. 2017): +VE (IC50 threshold of 100 µM)
DILI severity category (Chen et al. [2016]) ([8]; LTKB DILIrank category, ref Chen et al. 2016): Most
DILI severity category (Chen 2016) ([8]; human DILI classification, LTKB DILIrank, ref Chen et al. 2016): Most
DILI severity category ([8]; human DILI severity, ref Chen et al.): Most
DILI +VE (5-8), DILI -VE (-4) ([8]; ref Chen 2016): +VE
DILI severity category ([8]; ref Chen 2016): vMost-DILI-Concern
fu [9]: 0.050
PHH/100xCmax, Proctor (2017) (PHH; 2D PHH, ATP, IC50 < 100 × Cmax.tot, ref Proctor et al. 2017): +VE (IC50 < 100 × Cmax.tot)
PHH/100uM, Proctor (2017) (PHH; 2D PHH, ATP, IC50 threshold 100 µM, ref Proctor et al. 2017): +VE (IC50 threshold of 100 µM)
PHH ATP <100uM (PHH; [22]): +VE (IC50 threshold of 100 µM)
THLE-Null [10]: -VE
THLE-Null/3A4 [10]: -VE
Inhibition of rBsep cutoff<1& cmax u>.2 (rBsep): +VE
Inhibition of rBsep cutoff<3 (rBsep): +VE
AC50 (hLiMTs [11]; read-out: ATP endpoint AC50): 29.9 µM
minimal effective concentration (hLiMTs [11]; read-out: ATP endpoint MEC): 18.5 µM
AC50 (hLiMTs [11]; read-out: HCS endpoint AC50): 43.5 µM
minimal effective concentration (hLiMTs [11]; read-out: HCS endpoint MEC): 3.63 µM
DILI prediction hLiMTs (HCS-MEC) (hLiMTs [11]; [21]): +VE (MEC < 25 × Cmax.tot cut-off)
Structural based (HCI) (HepG2 cells [12]): +VE
in vitro data EC2<=1x Cmax [13]: +VE
in vitro data EC20<=2uM [13]: -VE
Structural based (HCI) (HepG2 cells [14]; In vitro Assay, ref Tolosa 2012): +VE
DILI in vitro assay prediction, Tolosa (2012) (HepG2 cells [14]; Structural based (HCI), HepG2, ref Tolosa et al. 2012): +VE
Assigned DILI category ([16]; Chen et al. 2016 or literature alignment, ref Chen et al. 2016): 3
In vivo DILI ([16]; […]): +VE
In vivo DILI ([16]; ref Aleo 2019): +VE
In vivo DILI ([16]; ref Dawson 2012): +VE
In vivo DILI ([16]; ref Garside 2014): +VE
In vivo DILI ([16]; ref Gustafsson 2014): +VE
In vivo DILI ([16]; ref O'Brien 2006): +VE
In vivo DILI ([16]; ref Persson 2013): +VE
In vivo DILI ([16]; ref Porceddu 2012): -VE
In vivo DILI ([16]; ref Proctor 2017): +VE
In vivo DILI ([16]; ref Schadt 2015): +VE
In vivo DILI ([16]; ref Tolosa 2012): +VE
In vivo DILI ([16]; ref Tolosa 2019): +VE
In vivo DILI ([16]; ref Vorrink 2018): +VE
In vivo DILI ([16]; ref Williams 2019): +VE
In vivo DILI ([16]; ref Xu 2008): +VE
Cluster 1-6 +VE Assay [17]: +VE
